The source of these data is patent US20220153751A1, “BIFUNCTIONAL COMPOUNDS” (BioTheryX, Inc., priority 2018, published 2022).

What all share (type): cell-based
For one experiment, the target named is T1, GSPT1 (Homo sapiens, UniProt P15170+Q96SW2).
T1 construct: Whole cell extracts were prepared using RIPA buffer; endogenous in cells; host or cells: MV-4-11
Briefly: GSPT1 degradation assay (Western blot, MV-4-11 cells). The note with it: MV4-11, 6-8 h. How it is done: (§1) MV-4-11 cells were grown in RPMI 1640 media supplemented with 10% fetal bovine serum, streptomycin and penicillin.
(§2) Cells were cultured at approximately 10^6 cells per mL and incubated in DMSO or the indicated compound for 6-8 h. Whole cell extracts were prepared using RIPA buffer according to manufacturer's protocol (Pierce). Briefly, 3×10^6 cells were washed once in PBS, the cell pellets were resuspended in RIPA buffer and allowed to incubate for 15 minutes on ice. Cells debris was removed by centrifugation and the cleared whole cell lysates were transferred to new tubes for further analysis.
(§3) For Western blot analysis, whole cell protein extracts were separated on 4-12% SDS-polyacrylamide gels, transferred to nitrocellulose and probed with the indicated primary antibodies. Membranes were subsequently washed and probed with the appropriate IRDye secondary antibodies (LI-COR). The signal was detected using the Odyssey Imaging System (LI-COR).
(§4) The following antibodies were used in these studies: Anti-eRF3/GSPT1: Abcam, ab126090 (Cambridge, Mass.); Anti-Ikaros: Abcam, ab191394 (Cambridge, Mass.); Anti-CK1α: Abcam, ab108296 (Cambridge, Mass.); Anti-CDK9: Santa Cruz Biotechnology, sc13130 (Dallas, Tex.); Anti-CDK16: Millipore Sigma, HPA001366 (St. Louis, Mo.); 3-actin (8H10comD10) mouse monoclonal antibody: Cell Signaling Technology, #3700 (Danvers, Mass.); IRDye 680RD Goat anti-rabbit antibody: LI-COR, 926-68071 (Lincoln, Nebr.); IRDye 800CW Goat anti-mouse antibody: LI-COR, 926-32210 (Lincoln, Nebr.).
(§5) CDK9 activities are shown in Table 4 at two different concentrations. CDK16 activities are shown in Table 5 at two different concentrations. In each of Tables 1-5, the % degradation values are reported as “A”, “B”, “C”, or “D”. “A” represents a % degradation value of less than 25% (value <25%). “B” represents a % degradation value of equal to or more than 25% and less than 50% (25%≤value<50%). “C” represents a % degradation value of equal to or more than 50% and less than 75% (50%≤value<75%). “D” represents a % degradation value of equal to or more than 75% (value ≥75%).
(In general: A western blot detects proteins with antibodies after separation by electrophoresis.)

The next experiment relates to MOLM-13 cells. Briefly: MOLM-13 cell viability assay (CellTiter-Glo). The note with it: Homo sapiens, MOLM-13, 72 h, 3 days, read-out: MOLM-13 Cell Viability % DMSO at 1 μM. On the procedure:
MOLM-13 cells were cultured in RPMI 1640 media supplemented with 10% fetal bovine serum, streptomycin and penicillin, and were plated in walled 96-well plates at 2500 cells/well. Cells were incubated in DMSO (control) or the indicated compound for 3 days at 37° C. and 5% CO2. Following the incubation period, 100 μL of CellTiterGlow (CTG) reagent (CellTiter-Glo® Luminescent Cell Viability Assay, Promega (Madison, Wis.)) was added to each well. Following a 10 minutes incubation with shaking, luminescence was measured using the EnVision Multimode plate reader.
The MOLM-13 cell viability values as % DMSO are reported as “A”, “B”, “C”, or “D”. “A” represents a % viability value of less than 50% (value <50%). “B” represents a % viability value of equal to or more than 50% and less than 70% (50%≤value<70%). “C” represents a % viability value of equal to or more than 70% and less than 90% (70%≤value<90%). “D” represents a % viability value of equal or more than 90% (value ≥90%).

The target in a further experiment is T2, IKAROS (Homo sapiens, UniProt Q13422+Q96SW2).
T2 construct: endogenous in cells; host or cells: MV-4-11
Briefly: IKAROS degradation assay (Western blot, MV-4-11 cells). The note with it: MV4-11, 6-8 h. How it is done: as §1, §2, §3, §4, §5

A further experiment has as its target T3, CDK9 (Homo sapiens, UniProt P50750).
T3 construct: Whole cell extracts were prepared using RIPA buffer; endogenous in cells; host or cells: MV-4-11
Briefly: CDK9 degradation assay (Western blot, MV-4-11 cells). Conditions: 6-8 h; for Dmax at 0.1 µM: MV4-11, 0.1 μM; for Dmax at 1 µM: MV4-11, 1 μM. How it is done:
as §1, §2, §3, §4, §5

The target in another experiment is T4, CDK16 (Homo sapiens, UniProt Q00536).
T4 construct: Whole cell extracts were prepared using RIPA buffer; endogenous in cells; host or cells: MV-4-11
Briefly: CDK16 degradation assay (Western blot, MV-4-11 cells). The note with it: 6-8 h; for Dmax at 0.1 µM: MV4-11, 0.1 μM; for Dmax at 1 µM: MV4-11, 1 μM. How it is done:
as §1, §2, §3, §4, §5

Another experiment deals with TNF-α. Briefly: TNF-α inhibition assay, LPS-induced PBMCs / CD14+ monocytes (Meso Scale). The note with it: 1 h pretreatment, 100 ng/mL LPS 18-24 h. How it is done: (§6) Either frozen primary blood mononuclear cells (PBMCs) or frozen CD14+ mobilized peripheral blood monocytes were purchased from AllCells (PB003F, Normal Peripheral Blood MNC (Alameda, Calif.)). Cells were quick thawed, washed 1-time with RPMI-1640 (10% FBS/1% Pen-Strep) and plated in 96 well plates at 200,000 cells per well. Cells were pretreated with DMSO only or with the indicated compound for 1 h and then induced with 100 ng/mL lipopolysaccharide (LPS) for 18-24 h. The supernatant was analyzed for IL-1β, IL-6, and TNFα, using Meso Scale assay according to manufacturer's protocol. The negative control wells were treated with DMSO.
(§7) In Table 6, the % inhibition values are reported as “A”, “B”, “C”, or “D”. “A” represents a % inhibition value of less than 50% (value <50%). “B” represents a % inhibition value of equal to or more than 50% and less than 70% (50%≤value<70%). “C” represents a % inhibition value of equal to or more than 70% and less than 90% (70%≤value<90%). “D” represents a % inhibition value of equal or more than 90% (value ≥90%). In Table 7, the fold-change values are reported as “A”, “B”, “C”, or “D”. “A” represents a fold-change value of equal to or less than 0.1 (value ≤0.1). “B” represents a fold-change value of more than 0.1 and equal to or less than 0.5 (0.1<value≤0.5). “C” represents a fold-change value of more than 0.5 and equal to or less than 1 (0.5<value≤1). “D” represents a fold-change value of more than 1 (value >1).

In another experiment the test system is IL-6. Briefly: IL-6 inhibition assay, LPS-induced PBMCs / CD14+ monocytes (Meso Scale). Conditions: 1 h pretreatment, 100 ng/mL LPS 18-24 h. On the procedure: as §6, §7
In the next experiment the test system is IL-1β. Briefly: IL-1β inhibition assay, LPS-induced PBMCs / CD14+ monocytes (Meso Scale). The note with it: 1 h pretreatment, 100 ng/mL LPS 18-24 h. How it is done: as §6, §7

T1 sequence (P15170 whole entry): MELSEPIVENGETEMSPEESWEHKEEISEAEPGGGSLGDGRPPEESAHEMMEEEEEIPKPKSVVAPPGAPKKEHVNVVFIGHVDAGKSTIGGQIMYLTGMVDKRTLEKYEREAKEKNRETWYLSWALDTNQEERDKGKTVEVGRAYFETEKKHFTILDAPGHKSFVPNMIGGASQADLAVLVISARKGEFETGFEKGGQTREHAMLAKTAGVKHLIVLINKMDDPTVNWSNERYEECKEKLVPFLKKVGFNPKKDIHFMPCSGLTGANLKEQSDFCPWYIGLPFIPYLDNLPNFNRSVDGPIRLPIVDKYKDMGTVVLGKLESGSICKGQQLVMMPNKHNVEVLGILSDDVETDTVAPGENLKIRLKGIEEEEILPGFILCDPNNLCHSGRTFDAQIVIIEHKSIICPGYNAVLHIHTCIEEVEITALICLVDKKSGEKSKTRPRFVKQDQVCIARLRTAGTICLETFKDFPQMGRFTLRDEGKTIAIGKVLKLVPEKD
T1 sequence (Q96SW2 whole entry): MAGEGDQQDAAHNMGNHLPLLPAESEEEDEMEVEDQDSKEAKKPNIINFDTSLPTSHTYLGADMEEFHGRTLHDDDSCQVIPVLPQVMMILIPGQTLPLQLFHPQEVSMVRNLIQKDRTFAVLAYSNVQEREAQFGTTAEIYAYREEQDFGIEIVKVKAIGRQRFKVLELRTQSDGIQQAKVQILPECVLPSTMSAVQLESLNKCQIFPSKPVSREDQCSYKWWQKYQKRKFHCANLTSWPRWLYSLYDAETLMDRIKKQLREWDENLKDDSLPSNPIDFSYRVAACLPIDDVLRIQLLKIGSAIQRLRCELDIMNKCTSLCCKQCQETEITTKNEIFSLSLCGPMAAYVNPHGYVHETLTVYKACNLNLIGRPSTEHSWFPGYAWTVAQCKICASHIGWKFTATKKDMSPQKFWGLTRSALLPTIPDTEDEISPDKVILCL
T1 sequence (Q16531 whole entry partner): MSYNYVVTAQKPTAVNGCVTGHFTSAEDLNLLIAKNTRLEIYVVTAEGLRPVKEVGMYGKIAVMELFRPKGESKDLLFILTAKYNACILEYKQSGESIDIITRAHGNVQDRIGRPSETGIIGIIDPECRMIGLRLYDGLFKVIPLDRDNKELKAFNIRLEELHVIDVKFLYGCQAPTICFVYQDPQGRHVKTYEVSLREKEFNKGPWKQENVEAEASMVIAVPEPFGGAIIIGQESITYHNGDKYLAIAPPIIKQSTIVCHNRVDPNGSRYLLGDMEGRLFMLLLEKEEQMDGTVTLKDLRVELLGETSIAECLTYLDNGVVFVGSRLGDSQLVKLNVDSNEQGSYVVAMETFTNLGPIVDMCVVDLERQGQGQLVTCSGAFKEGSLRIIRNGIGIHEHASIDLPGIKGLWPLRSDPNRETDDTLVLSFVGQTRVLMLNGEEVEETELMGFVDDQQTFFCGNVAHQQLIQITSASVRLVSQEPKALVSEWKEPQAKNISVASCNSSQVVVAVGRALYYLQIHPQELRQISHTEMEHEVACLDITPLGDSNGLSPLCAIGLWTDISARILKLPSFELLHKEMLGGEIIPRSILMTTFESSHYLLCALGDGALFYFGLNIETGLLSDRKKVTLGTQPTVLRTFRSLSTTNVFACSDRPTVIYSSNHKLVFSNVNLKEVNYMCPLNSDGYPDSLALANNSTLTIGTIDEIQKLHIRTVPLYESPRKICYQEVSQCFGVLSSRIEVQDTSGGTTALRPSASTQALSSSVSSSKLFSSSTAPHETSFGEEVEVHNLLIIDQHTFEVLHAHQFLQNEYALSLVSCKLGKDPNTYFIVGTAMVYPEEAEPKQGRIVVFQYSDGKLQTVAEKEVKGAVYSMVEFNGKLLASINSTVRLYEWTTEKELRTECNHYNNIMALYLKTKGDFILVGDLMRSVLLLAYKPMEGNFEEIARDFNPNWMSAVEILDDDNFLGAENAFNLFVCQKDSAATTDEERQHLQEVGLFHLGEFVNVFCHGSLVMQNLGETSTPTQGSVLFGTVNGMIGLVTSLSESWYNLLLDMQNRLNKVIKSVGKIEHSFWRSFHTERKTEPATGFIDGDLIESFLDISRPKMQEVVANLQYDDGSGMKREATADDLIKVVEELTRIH
T3 sequence (P50750 whole entry): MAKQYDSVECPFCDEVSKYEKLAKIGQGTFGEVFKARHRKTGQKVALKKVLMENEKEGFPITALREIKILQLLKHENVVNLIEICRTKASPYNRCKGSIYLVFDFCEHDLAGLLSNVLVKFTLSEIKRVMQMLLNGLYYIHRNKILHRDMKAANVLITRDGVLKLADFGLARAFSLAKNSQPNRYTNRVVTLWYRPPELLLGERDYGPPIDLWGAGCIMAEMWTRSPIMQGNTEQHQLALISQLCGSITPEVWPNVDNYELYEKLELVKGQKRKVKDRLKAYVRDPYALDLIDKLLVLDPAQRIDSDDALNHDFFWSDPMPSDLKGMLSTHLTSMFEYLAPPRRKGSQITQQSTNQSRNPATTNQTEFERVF
T4 sequence (Q00536 whole entry): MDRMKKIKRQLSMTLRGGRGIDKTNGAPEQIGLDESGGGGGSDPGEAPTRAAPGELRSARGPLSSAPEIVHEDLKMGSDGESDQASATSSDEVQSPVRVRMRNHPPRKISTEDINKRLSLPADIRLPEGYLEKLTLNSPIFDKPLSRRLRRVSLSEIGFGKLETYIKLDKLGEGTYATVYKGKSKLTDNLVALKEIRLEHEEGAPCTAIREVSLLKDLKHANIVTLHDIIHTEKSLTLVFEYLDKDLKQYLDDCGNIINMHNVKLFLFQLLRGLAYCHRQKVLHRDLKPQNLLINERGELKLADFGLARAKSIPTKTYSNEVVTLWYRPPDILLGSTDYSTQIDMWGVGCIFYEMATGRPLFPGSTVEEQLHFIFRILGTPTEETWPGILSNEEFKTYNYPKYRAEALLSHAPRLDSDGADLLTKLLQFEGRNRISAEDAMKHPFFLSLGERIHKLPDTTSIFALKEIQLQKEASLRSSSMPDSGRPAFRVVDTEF
T2 sequence (Q13422 whole entry): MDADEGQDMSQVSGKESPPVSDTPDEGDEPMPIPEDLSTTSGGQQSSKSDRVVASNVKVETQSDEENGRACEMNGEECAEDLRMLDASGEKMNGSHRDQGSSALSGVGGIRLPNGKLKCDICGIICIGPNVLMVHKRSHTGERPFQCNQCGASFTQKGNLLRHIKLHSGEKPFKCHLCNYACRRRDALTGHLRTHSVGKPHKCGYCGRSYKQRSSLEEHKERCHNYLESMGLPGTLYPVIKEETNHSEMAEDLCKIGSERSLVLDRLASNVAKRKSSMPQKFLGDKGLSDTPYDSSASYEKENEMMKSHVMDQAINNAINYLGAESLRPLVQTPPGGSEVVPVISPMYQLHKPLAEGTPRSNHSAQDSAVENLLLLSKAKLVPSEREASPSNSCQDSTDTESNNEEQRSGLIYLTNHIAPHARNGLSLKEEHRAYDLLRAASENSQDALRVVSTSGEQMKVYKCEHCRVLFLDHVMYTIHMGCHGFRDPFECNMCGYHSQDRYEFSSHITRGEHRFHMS
T2 sequence (Q96SW2 whole entry): as the sequence (Q96SW2 whole entry) above
T2 sequence (Q16531 whole entry partner): as the sequence (Q16531 whole entry partner) above

Take `Cn1ncc(-c2nc(N[C@H]3CC[C@H](NCCCCCCCNCc4ccc(OCc5scc6c5CN([C@H]5CCC(=O)NC5=O)C6=O)cc4)CC3)ncc2Cl)c1CC1CC1` [Compound 68, (S)-3-(1-((4-(((7-(((1r,4r)-4-((5-chloro-4-(5-(cyclopropylmethyl)-1-methyl-1H-pyrazol-4-yl)pyrimidin-2-yl)amino)cyclohexyl)amino)heptyl)amino)methyl)phenoxy)methyl)-4-oxo-4H-thieno[3,4-c]pyrrol-5(6H)-yl)piperidine-2,6-dione]: the Dmax at 1 µM on GSPT1 and at IKAROS was not below 75% in each case. Moreover, the viability at 1 µM in the experiment on MOLM-13 cells was more than 90%.

With `CC(C)(C)c1cnc(CSc2cnc(NC(=O)C3CCN(CC(=O)NCCCCNCC(=O)NCc4cc5c(s4)C(=O)N(C4CCC(=O)NC4=O)C5)CC3)s2)o1` (centres unmarked) [Compound 14, N-(5-(((5-(tert-butyl)oxazol-2-yl)methyl)thio)thiazol-2-yl)-1-(2-((4-((2-(((5-(2,6-dioxopiperidin-3-yl)-6-oxo-5,6-dihydro-4H-thieno[2,3-c]pyrrol-2-yl)methyl)amino)-2-oxoethyl)amino)butyl)amino)-2-oxoethyl)piperidine-4-carboxamide], the maximal degradation (Dmax) at 1 µM was 25 to 50% on GSPT1, not below 75% at CDK9, 25 to 50% at CDK16 and less than 25% on IKAROS. For the same compound, the viability at 1 µM in the experiment with MOLM-13 cells was more than 90%. Moreover, the Dmax at 0.1 µM at CDK9 is 25 to 50%; on CDK16, less than 25%.

Take `Cn1ncc(-c2nc(N[C@H]3CC[C@H](NCC(=O)NCCOCCOCCOCCNc4cccc5c4C(=O)N(C4CCC(=O)NC4=O)C5=O)CC3)ncc2Cl)c1CC1CC1` (some centres unmarked) [Compound 49, 2-(((1r,4r)-4-((5-chloro-4-(5-(cyclopropylmethyl)-1-methyl-1H-pyrazol-4-yl)pyrimidin-2-yl)amino)cyclohexyl)amino)-N-(2-(2-(2-(2-((2-(2,6-dioxopiperidin-3-yl)-1,3-dioxoisoindolin-4-yl)amino)ethoxy)ethoxy)ethoxy)ethyl)acetamide]: the Dmax at 1 µM on GSPT1 is less than 25%; on IKAROS, 50 to 75%. In addition, in the experiment on MOLM-13 cells, the viability at 1 µM is more than 90%.

As for `Cn1ncc(-c2nc(N[C@H]3CC[C@H](NCC(=O)NCCCCNCC(=O)NCc4cc5c(s4)C(=O)N(C4CCC(=O)NC4=O)C5)CC3)ncc2F)c1CC1CC1` (some centres unmarked) [Compound 29, 2-(((1r,4r)-4-((4-(5-(cyclopropylmethyl)-1-methyl-1H-pyrazol-4-yl)-5-fluoropyrimidin-2-yl)amino)cyclohexyl)amino)-N-(4-((2-(((5-(2,6-dioxopiperidin-3-yl)-6-oxo-5,6-dihydro-4H-thieno[2,3-c]pyrrol-2-yl)methyl)amino)-2-oxoethyl)amino)butyl)acetamide], the greatest degradation seen (Dmax) at 1 µM is less than 25% at GSPT1, 50 to 75% on CDK9, 50 to 75% on CDK16 and 50 to 75% on IKAROS. For the same compound, the viability at 1 µM with MOLM-13 cells is more than 90%. The greatest degradation seen (Dmax) at 0.1 µM at CDK9 and at CDK16 was 25 to 50% throughout.

In the case of `Cn1ncc(-c2nc(N[C@H]3CC[C@H](NCC(=O)NCCCCCNCC(=O)NCc4scc5c4CN(C4CCC(=O)NC4=O)C5=O)CC3)ncc2F)c1CC1CC1` (some centres unmarked) [Compound 32, 2-(((1r,4r)-4-((4-(5-(cyclopropylmethyl)-1-methyl-1H-pyrazol-4-yl)-5-fluoropyrimidin-2-yl)amino)cyclohexyl)amino)-N-(5-((2-(((5-(2,6-dioxopiperidin-3-yl)-4-oxo-5,6-dihydro-4H-thieno[3,4-c]pyrrol-1-yl)methyl)amino)-2-oxoethyl)amino)pentyl)acetamide], the maximal degradation (Dmax) at 1 µM at GSPT1 was 25 to 50%; on CDK9 it was not below 75%; on CDK16 it was not below 75%; at IKAROS it was 50 to 75%. Also, in the experiment with MOLM-13 cells, the viability at 1 µM was more than 90%. Also, the maximal degradation (Dmax) at 0.1 µM on CDK9 and at CDK16 was 50 to 75% throughout.

As for `Cn1ncc(-c2nc(N[C@H]3CC[C@H](NCC(=O)NCCCCNCC(=O)NCc4scc5c4CN(C4CCC(=O)NC4=O)C5=O)CC3)ncc2Cl)c1CC1CC1` (some centres unmarked) [Compound 38, 2-(((1r,4r)-4-((5-chloro-4-(5-(cyclopropylmethyl)-1-methyl-1H-pyrazol-4-yl)pyrimidin-2-yl)amino)cyclohexyl)amino)-N-(4-((2-(((5-(2,6-dioxopiperidin-3-yl)-4-oxo-5,6-dihydro-4H-thieno[3,4-c]pyrrol-1-yl)methyl)amino)-2-oxoethyl)amino)butyl)acetamide], the greatest degradation seen (Dmax) at 1 µM on GSPT1 was 50 to 75%; at CDK9 it was not below 75%; on CDK16 it was not below 75%; on IKAROS it was 25 to 50%. In the experiment on MOLM-13 cells, the viability at 1 µM is more than 90%. Also, the Dmax at 0.1 µM on CDK9 and at CDK16 was 50 to 75% in each case.

Take `Cn1ncc(-c2nc(N[C@H]3CC[C@H](NCC(=O)NCCOCCOCCOCCNCC(=O)NCc4cc5c(s4)C(=O)N(C4CCC(=O)NC4=O)C5)CC3)ncc2Cl)c1CC1CC1` (some centres unmarked) [Compound 43, 14-(2-(((1r,4r)-4-((5-chloro-4-(5-(cyclopropylmethyl)-1-methyl-1H-pyrazol-4-yl)pyrimidin-2-yl)amino)cyclohexyl)amino)acetamido)-N-((5-(2,6-dioxopiperidin-3-yl)-6-oxo-5,6-dihydro-4H-thieno[2,3-c]pyrrol-2-yl)methyl)-6,9,12-trioxa-3-azatetradecanamide]: the Dmax at 1 µM on GSPT1 was in the range of 50 to 75%. Further, in the experiment with MOLM-13 cells, the viability at 1 µM lay in the range of 50 to 70%. Moreover, the inhibition at 1 µM with TNF-α, with IL-6 and in the experiment with IL-1β was less than 50% in each case.

At GSPT1, `Cn1ncc(-c2nc(NC3CCC(NC(=O)CCCCCCNC(=O)NCc4scc5c4CN(C4CCC(=O)NC4=O)C5=O)CC3)ncc2Cl)c1CC1CC1` (centres unmarked) [Compound 4, 3-[2-({3-[7-(4-{5-Chloro-4-[5-(cyclopropylmethyl)-1-methyl-1H-pyrazol-4-yl]-2-pyrimidinylamino}cyclohexylamino)-7-oxoheptyl]ureido}methyl)-6-oxo-3-thia-7-azabicyclo[3.3.0]octa-1,4-dien-7-yl]-2,6-piperidinedione] yielded a Dmax at 1 µM of 25 to 50%. The viability at 1 µM in the experiment with MOLM-13 cells is more than 90%.

One may read the Dmax as the greatest extent of degradation seen. The low end stands for a partial loss of target, the high end for a fuller loss of target. For orientation: viability means a read-out of living cells in per cent, often relative to untreated cells. As a reminder, the inhibition is how much of the control response was suppressed.
